The source made the active and inactive calls. The calls are words filed in the database; no cut-off is given here.
How the values were obtained:
[1] = Cmax in Sprague-Dawley rat at 5 mg/kg, iv measured upto 48 hrs by LC-MS/MS analysis; assay type: ADME, organism-based; conditions: in vivo
[2] = AUC (0 to infinity) in Sprague-Dawley rat at 5 mg/kg, iv measured upto 48 hrs by LC-MS/MS analysis; assay type: ADME, organism-based; conditions: in vivo
[3] = Antiproliferative activity against mouse Ba/F3 FLT3-ITD cells assessed as inhibition of cell growth measured after 72 hrs by Celltiter-glo luminescent cell viability assay; assay type: functional, cell-based
U-87 MG = test: Antiproliferative activity against human U-87 MG cells assessed as inhibition of cell growth measured after 72 hrs by Celltiter-glo luminescent cell viability assay; assay type: functional, cell-based, U-87MG ATCC
MOLM-13 [4] = test: Inhibition of STAT5 phosphorylation in human MOLM-13 cells incubated for 2 hrs by Western blot analysis; assay type: cell-based; conditions: dose 0.04-5 µM
MOLM-13 [5] = test: Induction of cell cycle arrest in human MOLM-13 cells assessed as accumulation of cells at S phase at 0.3 uM measured after 48 hrs by PI staining based flow cytometry analysis (reference value: 45.3%); assay type: functional
MOLM-13 [6] = test: Effect on FLT3 level in human MOLM-13 cells at 0.04 to 5 nM measured after 2 hrs by Western blot analysis; assay type: functional, cell-based; conditions: dose 0.04-5 nM
MOLM-13 [7] = test: Induction of cell cycle arrest in human MOLM-13 cells assessed as accumulation of cells at G1 phase at 0.3 uM measured after 48 hrs by PI staining based flow cytometry analysis (reference value: 42.8%); assay type: functional
MOLM-13 [8] = test: Induction of cell cycle arrest in human MOLM-13 cells assessed as accumulation of cells at G1 phase at 3 uM measured after 48 hrs by PI staining based flow cytometry analysis (reference value: 42.8%); assay type: functional
MOLM-13 [9] = test: Induction of cell cycle arrest in human MOLM-13 cells assessed as accumulation of cells at G2 phase at 1 uM measured after 48 hrs by PI staining based flow cytometry analysis (reference value: 12.5%); assay type: functional
MOLM-13 [10] = test: Induction of apoptosis in human MOLM-13 cells assessed as viable cells at 1 uM measured after 48 hrs by annexin-V and PI staining based flow cytometry analysis (reference value: 88.7%); assay type: functional; conditions: read-out: Activity
MOLM-13 [11] = test: Induction of apoptosis in human MOLM-13 cells assessed as early apoptotic cells at 0.3 uM measured after 48 hrs by annexin-V and PI staining based flow cytometry analysis (reference value: 8.92%); assay type: functional
MOLM-13 [12] = test: Induction of apoptosis in human MOLM-13 cells assessed as late apoptotic cells at 0.3 uM measured after 48 hrs by annexin-V and PI staining based flow cytometry analysis (reference value: 2.28%); assay type: functional
MOLM-13 [13] = test: Induction of apoptosis in human MOLM-13 cells assessed as necrotic cells at 1 uM measured after 48 hrs by annexin-V and PI staining based flow cytometry analysis (reference value: 0.087%); assay type: functional
[14] = Half life in Sprague-Dawley rat at 5 mg/kg, iv measured upto 48 hrs by LC-MS/MS analysis; assay type: ADME, organism-based; conditions: in vivo
[15] = Tmax in Sprague-Dawley rat at 5 mg/kg, iv measured upto 48 hrs by LC-MS/MS analysis; assay type: ADME, organism-based; conditions: in vivo
[16] = Half life in Sprague-Dawley rat at 20 mg/kg, po measured upto 48 hrs by LC-MS/MS analysis; assay type: ADME, organism-based; conditions: in vivo
[17] = Cmax in Sprague-Dawley rat at 20 mg/kg, po measured upto 48 hrs by LC-MS/MS analysis; assay type: ADME, organism-based; conditions: in vivo
[18] = MRT (0 to t) in Sprague-Dawley rat at 20 mg/kg, po measured upto 48 hrs by LC-MS/MS analysis; assay type: ADME, organism-based; conditions: in vivo
[19] = Oral bioavailability in Sprague-Dawley rat at 20 mg/kg measured upto 48 hrs by LC-MS/MS analysis; assay type: ADME, organism-based; conditions: in vivo
[20] = Toxicity in female NSG mouse assessed as effect on liver at 20 to 40 mg/kg, po measured after 21 days by H and E staining based analysis; assay type: organism-based; conditions: in vivo, 504 h, dose 20-40 mg/kg, time 21 day
[21] = Toxicity in female NSG mouse assessed as effect on spleen at 20 to 40 mg/kg, po measured after 21 days by H and E staining based analysis; assay type: organism-based; conditions: in vivo, 504 h, dose 20-40 mg/kg, time 21 day
[22] = biological target: T1, Vascular endothelial growth factor receptor 1 (Homo sapiens, UniProt P17948); test: Inhibition of human FLT assessed as residual activity at 1 uM by Eurofins kinase assay relative to control
T1 sequence (P17948 whole entry): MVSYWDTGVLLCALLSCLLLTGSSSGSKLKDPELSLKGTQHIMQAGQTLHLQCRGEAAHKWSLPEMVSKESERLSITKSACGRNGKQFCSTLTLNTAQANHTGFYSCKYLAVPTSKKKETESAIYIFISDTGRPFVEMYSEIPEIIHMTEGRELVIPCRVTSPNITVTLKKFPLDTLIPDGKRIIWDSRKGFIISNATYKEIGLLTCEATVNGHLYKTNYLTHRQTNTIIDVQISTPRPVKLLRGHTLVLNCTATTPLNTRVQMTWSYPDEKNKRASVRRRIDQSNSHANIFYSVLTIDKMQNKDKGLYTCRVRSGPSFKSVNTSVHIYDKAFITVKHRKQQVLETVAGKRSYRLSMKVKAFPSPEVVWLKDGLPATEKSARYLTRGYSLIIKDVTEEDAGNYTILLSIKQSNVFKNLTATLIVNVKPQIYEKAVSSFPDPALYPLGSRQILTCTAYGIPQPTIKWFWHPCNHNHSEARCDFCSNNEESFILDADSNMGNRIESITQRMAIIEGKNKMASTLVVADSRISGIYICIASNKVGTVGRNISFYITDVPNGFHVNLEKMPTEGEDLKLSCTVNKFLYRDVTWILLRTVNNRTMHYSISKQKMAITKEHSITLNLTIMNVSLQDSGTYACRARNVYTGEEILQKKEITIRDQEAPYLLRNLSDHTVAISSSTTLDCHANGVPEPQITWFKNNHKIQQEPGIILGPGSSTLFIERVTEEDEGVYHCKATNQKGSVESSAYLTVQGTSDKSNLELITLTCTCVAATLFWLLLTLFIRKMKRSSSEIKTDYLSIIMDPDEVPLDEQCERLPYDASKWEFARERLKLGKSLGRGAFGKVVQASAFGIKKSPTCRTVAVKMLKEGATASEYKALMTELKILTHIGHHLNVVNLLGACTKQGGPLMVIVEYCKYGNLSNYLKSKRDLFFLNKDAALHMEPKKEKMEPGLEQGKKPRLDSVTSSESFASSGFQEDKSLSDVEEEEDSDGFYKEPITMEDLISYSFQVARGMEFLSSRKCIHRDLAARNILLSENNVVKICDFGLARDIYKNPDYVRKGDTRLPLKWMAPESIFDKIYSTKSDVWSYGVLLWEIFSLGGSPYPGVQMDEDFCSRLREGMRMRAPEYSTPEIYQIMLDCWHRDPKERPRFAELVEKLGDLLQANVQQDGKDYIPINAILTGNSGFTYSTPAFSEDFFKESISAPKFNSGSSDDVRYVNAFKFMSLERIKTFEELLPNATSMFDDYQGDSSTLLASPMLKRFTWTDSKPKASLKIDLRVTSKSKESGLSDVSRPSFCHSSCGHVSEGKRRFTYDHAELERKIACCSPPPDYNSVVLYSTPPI

[23] = biological target: Vascular endothelial growth factor receptor 3 (Homo sapiens, UniProt P35916); test: Inhibition of human FLT4 assessed as residual activity at 1 uM by Eurofins kinase assay relative to control
[24] = biological target: Aurora kinase B (Homo sapiens) (UniProt Q96GD4); test: Inhibition of human AuroraB at 1 uM by Eurofins kinase assay
[25] = system: Mast/stem cell growth factor receptor Kit (Homo sapiens), P10721 [V654A]; test: Inhibition of human c-kit V654A mutant at 1 uM by Eurofins kinase assay
Homo sapiens = species on record: Homo sapiens; test: Inhibition of human cSRC at 1 uM by Eurofins kinase assay
[26] = biological target: Epithelial discoidin domain-containing receptor 1 (Homo sapiens) (UniProt Q08345); test: Inhibition of human DDR1 at 1 uM by Eurofins kinase assay
[27] = biological target: Epidermal growth factor receptor (Homo sapiens) (UniProt P00533); test: Inhibition of human EGFR at 1 uM by Eurofins kinase assay
[28] = biological target: Fibroblast growth factor receptor 2 (Homo sapiens) (UniProt P21802); test: Inhibition of human FGFR2 at 1 uM by Eurofins kinase assay
[29] = biological target: Fibroblast growth factor receptor 4 (Homo sapiens) (UniProt P22455); test: Inhibition of human FGFR4 at 1 uM by Eurofins kinase assay
Chain of Fibroblast growth factor receptor 4 (Homo sapiens) (P22455 22-802 limits assumed): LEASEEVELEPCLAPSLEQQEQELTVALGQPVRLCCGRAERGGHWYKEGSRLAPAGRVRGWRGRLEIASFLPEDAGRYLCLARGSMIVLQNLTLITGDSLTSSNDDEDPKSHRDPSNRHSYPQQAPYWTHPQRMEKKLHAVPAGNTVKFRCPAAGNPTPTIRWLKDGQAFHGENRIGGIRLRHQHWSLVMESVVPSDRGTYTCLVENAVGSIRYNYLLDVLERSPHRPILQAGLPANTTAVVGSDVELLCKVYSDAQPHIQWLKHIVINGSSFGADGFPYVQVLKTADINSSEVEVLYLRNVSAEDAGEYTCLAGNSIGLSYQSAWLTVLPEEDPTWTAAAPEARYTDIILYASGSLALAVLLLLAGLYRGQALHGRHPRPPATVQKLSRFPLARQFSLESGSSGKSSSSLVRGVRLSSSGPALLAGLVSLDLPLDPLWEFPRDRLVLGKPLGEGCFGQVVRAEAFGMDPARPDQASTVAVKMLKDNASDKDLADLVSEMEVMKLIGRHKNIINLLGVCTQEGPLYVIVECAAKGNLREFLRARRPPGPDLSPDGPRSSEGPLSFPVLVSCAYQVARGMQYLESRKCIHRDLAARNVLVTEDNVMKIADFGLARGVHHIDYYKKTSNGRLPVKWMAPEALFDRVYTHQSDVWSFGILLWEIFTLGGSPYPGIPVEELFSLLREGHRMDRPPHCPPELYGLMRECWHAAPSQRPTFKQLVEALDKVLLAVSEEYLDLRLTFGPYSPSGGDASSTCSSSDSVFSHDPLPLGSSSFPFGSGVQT

[30] = biological target: Mitogen-activated protein kinase 8 (Homo sapiens) (UniProt P45983); test: Inhibition of human JNK1 at 1 uM by Eurofins kinase assay
[31] = biological target: Mitogen-activated protein kinase kinase kinase 1 (Homo sapiens) (UniProt Q13233); test: Inhibition of human MEKK1 at 1 uM by Eurofins kinase assay
[32] = biological target: Mitogen-activated protein kinase 1 (Homo sapiens) (UniProt P28482); test: Inhibition of human MAPK1 at 1 uM by Eurofins kinase assay
Chain of Mitogen-activated protein kinase 1 (Homo sapiens) (P28482 whole entry): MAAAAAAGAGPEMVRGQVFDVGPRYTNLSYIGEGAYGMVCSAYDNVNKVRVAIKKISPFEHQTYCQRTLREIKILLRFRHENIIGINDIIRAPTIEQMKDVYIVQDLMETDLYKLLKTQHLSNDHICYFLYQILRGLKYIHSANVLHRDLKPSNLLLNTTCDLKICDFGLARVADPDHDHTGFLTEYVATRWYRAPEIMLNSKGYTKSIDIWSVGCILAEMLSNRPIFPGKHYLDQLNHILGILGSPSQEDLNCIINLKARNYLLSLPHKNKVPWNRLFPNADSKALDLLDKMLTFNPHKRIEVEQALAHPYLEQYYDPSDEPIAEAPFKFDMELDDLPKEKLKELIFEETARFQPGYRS

[33] = biological target: Serine/threonine-protein kinase Nek2 (Homo sapiens) (UniProt P51955); test: Inhibition of human NEK2 at 1 uM by Eurofins kinase assay
Chain of Serine/threonine-protein kinase Nek2 (Homo sapiens) (P51955 whole entry): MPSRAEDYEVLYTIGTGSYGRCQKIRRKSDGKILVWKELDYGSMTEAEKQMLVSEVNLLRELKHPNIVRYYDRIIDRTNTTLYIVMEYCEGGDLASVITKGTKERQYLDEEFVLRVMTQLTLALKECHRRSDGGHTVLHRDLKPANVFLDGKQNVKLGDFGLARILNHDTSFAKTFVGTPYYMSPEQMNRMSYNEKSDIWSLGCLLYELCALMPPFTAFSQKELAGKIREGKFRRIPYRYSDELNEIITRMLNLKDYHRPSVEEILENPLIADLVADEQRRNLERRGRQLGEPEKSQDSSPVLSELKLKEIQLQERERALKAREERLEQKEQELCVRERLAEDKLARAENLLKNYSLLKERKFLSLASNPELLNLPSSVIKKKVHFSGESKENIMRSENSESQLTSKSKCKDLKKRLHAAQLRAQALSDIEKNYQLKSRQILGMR

[34] = biological target: High affinity nerve growth factor receptor (Homo sapiens) (UniProt P04629); test: Inhibition of human TrkA at 1 uM by Eurofins kinase assay
[35] = biological target: Non-receptor tyrosine-protein kinase TYK2 (Homo sapiens) (UniProt P29597); test: Inhibition of human TYK2 at 1 uM by Eurofins kinase assay
Chain of Non-receptor tyrosine-protein kinase TYK2 (Homo sapiens) (P29597 whole entry): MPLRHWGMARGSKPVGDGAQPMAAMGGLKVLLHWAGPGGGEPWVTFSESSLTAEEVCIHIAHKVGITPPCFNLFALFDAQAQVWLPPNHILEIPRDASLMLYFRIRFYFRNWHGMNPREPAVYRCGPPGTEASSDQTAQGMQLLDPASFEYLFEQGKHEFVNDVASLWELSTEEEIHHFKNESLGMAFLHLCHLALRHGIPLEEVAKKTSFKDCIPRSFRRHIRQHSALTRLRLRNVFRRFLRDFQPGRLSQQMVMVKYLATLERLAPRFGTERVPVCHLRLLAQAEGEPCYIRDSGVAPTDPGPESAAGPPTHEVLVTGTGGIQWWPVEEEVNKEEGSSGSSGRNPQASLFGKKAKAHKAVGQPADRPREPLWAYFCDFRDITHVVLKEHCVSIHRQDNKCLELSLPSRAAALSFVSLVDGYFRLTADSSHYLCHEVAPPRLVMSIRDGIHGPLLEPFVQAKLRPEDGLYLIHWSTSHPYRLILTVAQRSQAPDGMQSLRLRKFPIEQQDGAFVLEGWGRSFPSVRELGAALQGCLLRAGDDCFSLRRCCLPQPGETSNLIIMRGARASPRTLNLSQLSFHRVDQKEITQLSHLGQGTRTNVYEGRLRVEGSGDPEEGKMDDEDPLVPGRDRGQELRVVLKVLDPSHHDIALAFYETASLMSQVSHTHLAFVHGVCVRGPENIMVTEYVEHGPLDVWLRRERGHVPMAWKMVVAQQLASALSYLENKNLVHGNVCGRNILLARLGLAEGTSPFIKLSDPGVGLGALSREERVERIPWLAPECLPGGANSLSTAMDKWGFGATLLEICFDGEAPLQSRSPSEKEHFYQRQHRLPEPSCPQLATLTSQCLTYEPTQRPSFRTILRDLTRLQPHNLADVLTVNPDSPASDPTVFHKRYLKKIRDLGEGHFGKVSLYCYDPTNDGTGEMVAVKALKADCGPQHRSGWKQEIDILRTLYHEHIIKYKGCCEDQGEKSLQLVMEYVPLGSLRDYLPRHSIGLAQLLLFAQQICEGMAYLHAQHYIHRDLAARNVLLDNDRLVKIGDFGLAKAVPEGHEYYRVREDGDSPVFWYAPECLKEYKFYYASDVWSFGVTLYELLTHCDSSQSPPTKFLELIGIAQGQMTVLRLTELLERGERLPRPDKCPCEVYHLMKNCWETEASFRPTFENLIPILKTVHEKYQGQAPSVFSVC

[36] = biological target: Wee1-like protein kinase (Homo sapiens) (UniProt P30291); test: Inhibition of human Wee1 at 1 uM by Eurofins kinase assay
Chain of Wee1-like protein kinase (Homo sapiens) (P30291 whole entry, looked up): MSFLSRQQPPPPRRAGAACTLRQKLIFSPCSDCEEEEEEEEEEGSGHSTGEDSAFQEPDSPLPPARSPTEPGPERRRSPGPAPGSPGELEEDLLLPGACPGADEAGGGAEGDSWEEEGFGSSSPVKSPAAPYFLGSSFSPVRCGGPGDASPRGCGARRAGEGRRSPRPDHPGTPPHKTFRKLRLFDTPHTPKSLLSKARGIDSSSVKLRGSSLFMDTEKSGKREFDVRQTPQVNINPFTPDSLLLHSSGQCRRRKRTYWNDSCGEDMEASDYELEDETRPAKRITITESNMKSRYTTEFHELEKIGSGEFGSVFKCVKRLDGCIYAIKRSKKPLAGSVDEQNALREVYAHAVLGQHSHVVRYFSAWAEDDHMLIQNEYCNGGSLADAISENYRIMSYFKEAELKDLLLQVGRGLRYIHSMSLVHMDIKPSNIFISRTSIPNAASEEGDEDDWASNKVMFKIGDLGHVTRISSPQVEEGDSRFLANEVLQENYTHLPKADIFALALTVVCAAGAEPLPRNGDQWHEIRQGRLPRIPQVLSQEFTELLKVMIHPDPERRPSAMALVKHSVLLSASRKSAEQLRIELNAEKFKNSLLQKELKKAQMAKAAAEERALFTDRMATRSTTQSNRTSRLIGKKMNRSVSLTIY

[37] = biological target: Vascular endothelial growth factor receptor 2 (Homo sapiens, UniProt P35968); test: Inhibition of VEGFR2 (unknown origin) preincubated for 10 mins followed by addition of peptide solution by caliper mobility shift assay
[38] = biological target: T1, Vascular endothelial growth factor receptor 1; test: Inhibition of FLT (unknown origin) preincubated for 10 mins followed by addition of peptide solution by caliper mobility shift assay

- Cmax [1]: 26900 ng/mL
- AUC(0-inf) [2]: 59400 ng·h/mL
- IC50 (U-87 MG): > 30000 nM
- half-life [14]: 2.46 h
- Tmax [15]: 1.8 min
- half-life [16]: 3.57 h
- Cmax [17]: 8020 ng/mL
- MRT last at 48 h [18]: 4.49 h
- bioavailability [19]: 19.2%
- Activity [22]: 22%
- Activity [23]: 22%
- inhibition [24]: inactive
- inhibition [25]: inactive
- inhibition (Homo sapiens): inactive
- inhibition [26]: inactive
- inhibition [27]: inactive
- inhibition [28]: inactive
- inhibition [29]: inactive
- inhibition [30]: inactive
- inhibition [31]: inactive
- inhibition [32]: inactive
- inhibition [33]: inactive
- inhibition [34]: inactive
- inhibition [35]: inactive
- inhibition [36]: inactive
- IC50 [37]: 112 nM
- IC50 [38]: 588 nM
SMILES: O=C(Nc1ccc(Oc2ccnc(NC(=O)N3CC(O)C3)c2)c(F)c1)c1cn(-c2cccnc2)nn1
- IC50 [3]: 85 nM
- inhibition (MOLM-13 [4]): Dose-dependent-effect
- Activity (MOLM-13 [5]): 14%
- Activity (MOLM-13 [6]): Not active; Compound Barely Affect Flt3 Level
- Activity (MOLM-13 [7]): 79.4%
- Activity (MOLM-13 [8]): 89.9%
- Activity (MOLM-13 [9]): 4.33%
- viability at 1 µM (MOLM-13 [10]): 56.7%
- Activity (MOLM-13 [11]): 25%
- Activity (MOLM-13 [12]): 6.54%
- Activity (MOLM-13 [13]): 0.26%
- Activity [20]: Non-toxic
- Activity [21]: Non-toxic
